pIC50: −log10 of the molar value.
Key:
[1] = target: CRBN/DDB1 (Homo sapiens (Human), UniProt Q96SW2); test: HTRF binding assay to CRBN/DDB1; conditions: read-out: CRBN HTRF IC50
Protocol: The binding potency was determined using HTRF assay technology (Perkin Elmer). Compounds were serially diluted in DMSO and 0.2 μL volume was transferred to white 384-well plate.

[2] = target: ER (Homo sapiens (Human), UniProt P03372); test: In-cell western (ICW) ER degradation assay in MCF-7 cells; type: cell-based; conditions: MCF7, 16 hrs; for DC50: ER degradation; for Dmax: MCF7, maximal ER degradation
Sequence of ER (P03372 whole entry): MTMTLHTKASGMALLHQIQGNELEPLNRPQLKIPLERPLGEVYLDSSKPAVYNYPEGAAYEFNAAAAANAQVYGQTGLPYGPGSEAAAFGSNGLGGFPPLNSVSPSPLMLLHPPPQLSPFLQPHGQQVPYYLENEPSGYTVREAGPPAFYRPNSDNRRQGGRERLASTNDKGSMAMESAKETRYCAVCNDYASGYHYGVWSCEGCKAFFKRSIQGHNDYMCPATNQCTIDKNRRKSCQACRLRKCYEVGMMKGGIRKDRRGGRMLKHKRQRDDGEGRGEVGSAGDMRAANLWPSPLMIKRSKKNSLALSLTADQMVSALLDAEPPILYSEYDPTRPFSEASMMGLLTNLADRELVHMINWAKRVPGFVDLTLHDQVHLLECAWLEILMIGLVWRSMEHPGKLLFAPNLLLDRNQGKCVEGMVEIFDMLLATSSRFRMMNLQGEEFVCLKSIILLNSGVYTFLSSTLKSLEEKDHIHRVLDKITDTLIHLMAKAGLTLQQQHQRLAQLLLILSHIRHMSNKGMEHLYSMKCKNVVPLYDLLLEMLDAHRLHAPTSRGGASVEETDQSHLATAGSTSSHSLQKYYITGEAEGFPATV
Protocol: ERa degradative activity of compounds can be assessed in MCF-7 and T47D Cells. MCF-7 and T47D cell are seeded and are subsequently treated with the compounds at certain concentrations (e.g., 0.02 to 300 nM). DMSO can be used as vehicle control. Cells are fixed and are blocked with Intercept (PBS) Blocking Buffer (e.g., Li-COR, Odyssey Blocking Buffer), and are stained with ER (e.g., 1:500, Cell signaling) primary antibody for overnight at cold room. Secondary Antibody (e.g., IRDye 800CW Goat anti-Rabbit IgG) and CellTag 700 Stain are added in Intercept (PBS) Blocking Buffer. Finally, cell plate is placed in incubator to dry. Image and signal are captured on Odyssey® DLx Imaging System.
Day 3: After 16 hrs of compounds treatment, cells were fixed by 4% PFA and permeabilized with elution buffer (0.1% Triton X-100 in 1% PBS Solution). Subsequently, cells were blocked with Intercept (PBS) Blocking Buffer (Li-COR, Odyssey Blocking Buffer), and were stained with ER (1:500, Cell signaling) primary antibody for overnight at cold room.
Day 4: Remove the buffer, add IRDye 800CW Goat anti-Rabbit IgG Secondary Antibody (1:2000) and CellTag 700 Stain (1:500) in Intercept (PBS) Blocking Buffer. Finally, cell plate is placed in incubator to dry. Image and signal were captured on Odyssey® DLx Imaging System.

Sequence of CRBN/DDB1 (Q96SW2 whole entry): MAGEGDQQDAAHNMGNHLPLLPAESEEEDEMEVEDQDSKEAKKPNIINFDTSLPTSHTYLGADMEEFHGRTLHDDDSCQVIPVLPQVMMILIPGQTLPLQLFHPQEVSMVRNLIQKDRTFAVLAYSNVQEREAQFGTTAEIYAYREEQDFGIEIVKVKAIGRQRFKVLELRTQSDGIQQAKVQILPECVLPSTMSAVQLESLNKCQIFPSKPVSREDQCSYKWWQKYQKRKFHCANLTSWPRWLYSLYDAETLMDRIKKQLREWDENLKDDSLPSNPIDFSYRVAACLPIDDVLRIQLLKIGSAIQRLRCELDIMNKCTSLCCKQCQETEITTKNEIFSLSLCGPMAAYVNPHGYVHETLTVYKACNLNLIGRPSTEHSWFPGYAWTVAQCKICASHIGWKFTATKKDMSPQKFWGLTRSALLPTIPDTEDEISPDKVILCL
Sequence of CRBN/DDB1 (Q16531 whole entry partner): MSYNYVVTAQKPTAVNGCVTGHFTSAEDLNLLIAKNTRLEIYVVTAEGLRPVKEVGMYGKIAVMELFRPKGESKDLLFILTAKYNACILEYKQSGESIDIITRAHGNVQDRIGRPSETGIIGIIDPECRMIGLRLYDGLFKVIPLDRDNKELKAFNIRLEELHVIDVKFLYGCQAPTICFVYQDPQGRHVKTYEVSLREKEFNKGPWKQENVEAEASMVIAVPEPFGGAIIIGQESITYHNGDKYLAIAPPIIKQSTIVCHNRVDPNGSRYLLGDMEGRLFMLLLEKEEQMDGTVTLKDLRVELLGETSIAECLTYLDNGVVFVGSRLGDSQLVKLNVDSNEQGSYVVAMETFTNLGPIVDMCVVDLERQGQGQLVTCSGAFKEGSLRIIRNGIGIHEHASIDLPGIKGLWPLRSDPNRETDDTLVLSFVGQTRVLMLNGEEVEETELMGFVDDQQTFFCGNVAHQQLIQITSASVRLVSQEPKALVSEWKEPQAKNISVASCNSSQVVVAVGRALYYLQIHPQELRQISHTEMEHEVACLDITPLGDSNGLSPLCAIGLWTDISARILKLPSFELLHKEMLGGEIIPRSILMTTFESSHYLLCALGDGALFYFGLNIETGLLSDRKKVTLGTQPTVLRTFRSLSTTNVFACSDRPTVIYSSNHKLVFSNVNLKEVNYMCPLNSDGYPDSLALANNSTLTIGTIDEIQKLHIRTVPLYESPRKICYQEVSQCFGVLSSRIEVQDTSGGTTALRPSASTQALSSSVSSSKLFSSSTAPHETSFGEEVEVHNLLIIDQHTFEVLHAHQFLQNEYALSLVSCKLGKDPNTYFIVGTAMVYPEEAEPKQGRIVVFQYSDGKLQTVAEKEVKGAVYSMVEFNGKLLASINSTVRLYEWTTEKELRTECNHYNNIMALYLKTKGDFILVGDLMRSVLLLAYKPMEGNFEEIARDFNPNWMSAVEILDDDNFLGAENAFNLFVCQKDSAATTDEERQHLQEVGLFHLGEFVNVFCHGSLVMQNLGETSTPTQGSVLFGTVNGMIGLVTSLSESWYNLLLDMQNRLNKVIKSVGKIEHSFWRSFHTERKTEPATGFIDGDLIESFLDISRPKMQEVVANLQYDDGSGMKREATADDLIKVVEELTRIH

Row | Molecule | pIC50 [1] | other results
1 | 2-(2,6-dioxopiperidin-3-yl)-6-(2-(9-(4-((3R,4S)-7-hydroxy-3-phenylchroman-4-yl)phenyl)-3,9-diazaspiro[5.5]undecan-3-yl)acetyl)-6,7-dihydropyrrolo[3,4-flisoindole-1,3(2H,5H)-dione [Compound A43] | < 5.30 | DC50 [2]: > 100 nM; MCF7 Dmax % ([2]; maximal ER degradation): D (“D”; <25%)
2 | O=C1CCC(N2Cc3c(ccc4c3OC[C@@H]3CN(CC5CCN(c6ccc([C@@H]7c8ccc(O)cc8OC[C@@H]7c7ccccc7)cc6F)CC5)CCN43)C2=O)C(=O)N1 (single isomer, unassigned) [Compound A6] | 6.30 to 7.30 | DC50 [2]: 1 to 10 nM; Dmax [2]: 50 to 75%
3 | O=C1CCC(N2Cc3c(ccc4c3OC[C@@H]3CN(CC5CCN(c6ccc([C@@H]7c8ccc(O)cc8OC[C@@H]7c7ccccc7)cc6)CC5)CCN43)C2=O)C(=O)N1 (single isomer, unassigned) [Compound A7] | 6.30 to 7.30 | DC50 [2]: 1 to 10 nM; Dmax [2]: 50 to 75%
4 | O=C1CCC(N2Cc3c(ccc4c3OC[C@H]3CN(CC5CCN(c6ccc([C@@H]7c8ccc(O)cc8OC[C@@H]7c7ccccc7)cc6)CC5)CCN43)C2=O)C(=O)N1 (single isomer, unassigned) [Compound A8] | 6.30 to 7.30 | DC50 [2]: 1 to 10 nM
5 | COc1ccc([C@@H]2COc3cc(O)ccc3[C@@H]2c2ccc(N3CCC(CN4CCN5c6ccc7c(c6OC[C@@H]5C4)CN(C4CCC(=O)NC4=O)C7=O)CC3)cc2)cc1 (single isomer, unassigned) [Compound A12] | 6.30 to 7.30 | –
6 | COc1ccc([C@H]2COc3cc(O)ccc3[C@H]2c2ccc(N3CCC(CN4CCN5c6ccc7c(c6OC[C@@H]5C4)CN(C4CCC(=O)NC4=O)C7=O)CC3)cc2)cc1 (single isomer, unassigned) [Compound A13] | 6.30 to 7.30 | –
7 | COc1ccc([C@@H]2COc3cc(O)ccc3[C@@H]2c2ccc(N3CCC(CN4CCN5c6ccc7c(c6OC[C@H]5C4)CN(C4CCC(=O)NC4=O)C7=O)CC3)cc2)cc1 (single isomer, unassigned) [Compound A15] | 6.30 to 7.30 | –
8 | O=C1CCC(N2Cc3c(ccc4c3OC[C@@H]3CN(CC5CCN(c6ncc([C@H]7c8ccc(O)cc8OC[C@H]7c7ccccc7)cn6)CC5)CCN43)C2=O)C(=O)N1 (single isomer, unassigned) [Compound A19] | 6.30 to 7.30 | –
9 | O=C1CCC(N2Cc3c(ccc4c3OC[C@@H]3CN(CC5CCN(c6ncc([C@@H]7c8ccc(O)cc8OC[C@@H]7c7ccccc7)cn6)CC5)CCN43)C2=O)C(=O)N1 (single isomer, unassigned) [Compound A20] | > 7.30 | –
10 | O=C1CCC(N2Cc3c(ccc4c3OC[C@@H]3CN(CC5CC6(CCN(c7ccc([C@H]8c9ccc(O)cc9OC[C@H]8c8ccccc8)cc7)CC6)C5)CCN43)C2=O)C(=O)N1 (single isomer, unassigned) [Compound A21, 3-((S)-7-((7-(4-((3R,4S)-7-hydroxy-3-phenylchroman-4-yl)phenyl)-7-azaspiro[3.5]nonan-2-yl)methyl)-1-oxo-1,3,5,5a,6,7,8,9-octahydro-2H-pyrazino[1′,2′:4,5][1,4]oxazino[2,3-e]isoindol-2-yl)piperidine-2,6-dione] | > 7.30 | –
11 | COc1cccc([C@H]2COc3cc(O)ccc3[C@H]2c2ccc(N3CCC(CN4CCN5c6ccc7c(c6OC[C@@H]5C4)CN(C4CCC(=O)NC4=O)C7=O)CC3)cc2)c1 (single isomer, unassigned) [Compound A23] | > 7.30 | –
12 | COc1cccc([C@@H]2COc3cc(O)ccc3[C@@H]2c2ccc(N3CCC(CN4CCN5c6ccc7c(c6OC[C@@H]5C4)CN(C4CCC(=O)NC4=O)C7=O)CC3)cc2)c1 (single isomer, unassigned) [Compound A24] | > 7.30 | –
13 | Cc1nn(C2CCC(=O)NC2=O)c2ccc(N3CCN(CC4CC5(CCN(c6ccc([C@@H]7c8ccc(O)cc8OC[C@@H]7c7ccccc7)cc6)CC5)C4)CC3)cc12 (single isomer, unassigned) [Compound A25] | 6.30 to 7.30 | –
14 | O=C1CCC(N2C(=O)c3cc4c(cc3C2=O)CN(CC(=O)N2CCC3(CC2)CCN(c2ncc([C@H]5c6ccc(O)cc6OC[C@H]5c5ccccc5)cn2)CC3)C4)C(=O)N1 (stereo partly drawn) [Compound A4, 2-(2,6-dioxopiperidin-3-yl)-6-(2-(9-(5-((3R,4S)-7-hydroxy-3-phenylchroman-4-yl)pyrimidin-2-yl)-3,9-diazaspiro[5.5]undecan-3-yl)-2-oxoethyl)-6,7-dihydropyrrolo[3,4-f]isoindole-1,3(2H,5H)-dione] | 5.30 to 6.30 | –
15 | O=C1CCC(N2C(=O)c3cc4c(cc3C2=O)CN(CC(=O)N2CCC3(CC2)CCN(c2ncc([C@@H]5c6ccc(O)cc6OC[C@@H]5c5ccccc5)cn2)CC3)C4)C(=O)N1 (stereo partly drawn) [Compound A5, 2-(2,6-dioxopiperidin-3-yl)-6-(2-(9-(5-((3S,4R)-7-hydroxy-3-phenylchroman-4-yl)pyrimidin-2-yl)-3,9-diazaspiro[5.5]undecan-3-yl)-2-oxoethyl)-6,7-dihydropyrrolo[3,4-f]isoindole-1,3(2H,5H)-dione] | 5.30 to 6.30 | –
16 | O=C1CCC(N2Cc3cc4c(cc3C2=O)OC[C@@H]2CN(CC3CCN(c5ncc([C@@H]6c7ccc(O)cc7OC[C@@H]6c6ccccc6)cn5)CC3)CCN42)C(=O)N1 (stereo partly drawn) [Compound A10, 3-((S)-3-((1-(5-((3S,4R)-7-hydroxy-3-phenylchroman-4-yl)pyrimidin-2-yl)piperidin-4-yl)methyl)-8-oxo-1,2,3,4,4a,5,8,10-octahydro-9H-pyrazino[1′,2′:4,5][1,4]oxazino[2,3-f]isoindol-9-yl)piperidine-2,6-dione] | 5.30 to 6.30 | –
17 | O=C1CCC(N2Cc3cc4c(cc3C2=O)OC[C@@H]2CN(CC3CCN(c5ccc([C@H]6c7ccc(O)cc7OC[C@H]6c6ccccc6)cc5)CC3)CCN42)C(=O)N1 (stereo partly drawn) [Compound A11, 3-((S)-3-((1-(4-((3R,4S)-7-hydroxy-3-phenylchroman-4-yl)phenyl)piperidin-4-yl)methyl)-8-oxo-1,2,3,4,4a,5,8,10-octahydro-9H-pyrazino[1′,2′:4,5][1,4]oxazino[2,3-f]isoindol-9-yl)piperidine-2,6-dione] | < 5.30 | –
18 | O=C1CCC(N2Cc3cc4c(cc3C2=O)OC[C@@H]2CN(CC3CCN(c5ncc([C@H]6c7ccc(O)cc7OC[C@H]6c6ccccc6)cn5)CC3)CCN42)C(=O)N1 (stereo partly drawn) [Compound A18, 3-((S)-3-((1-(5-((3R,4S)-7-hydroxy-3-phenylchroman-4-yl)pyrimidin-2-yl)piperidin-4-yl)methyl)-8-oxo-1,2,3,4,4a,5,8,10-octahydro-9H-pyrazino[1′,2′:4,5][1,4]oxazino[2,3-f]isoindol-9-yl)piperidine-2,6-dione] | 5.30 to 6.30 | –
19 | O=C1CCC(N2Cc3c(ccc4c3OC[C@@H]3CN(CC5CC6(CCN(c7ccc([C@@H]8c9ccc(O)cc9OC[C@@H]8c8ccccc8)cc7)CC6)C5)CCN43)C2=O)C(=O)N1 (stereo partly drawn) [Compound A22, 3-((S)-7-((7-(4-((3S,4R)-7-hydroxy-3-phenylchroman-4-yl)phenyl)-7-azaspiro[3.5]nonan-2-yl)methyl)-1-oxo-1,3,5,5a,6,7,8,9-octahydro-2H-pyrazino[1′,2′:4,5][1,4]oxazino[2,3-e]isoindol-2-yl)piperidine-2,6-dione] | > 7.30 | –
20 | O=C1CCC(N2Cc3cc4c(cc3C2=O)OC[C@@H]2CN(CC3CC5(CCN(c6ccc([C@@H]7c8ccc(O)cc8OC[C@@H]7c7ccccc7)cc6)CC5)C3)CCN42)C(=O)N1 (stereo partly drawn) [Compound A28, 3-((S)-3-((7-(4-((3S,4R)-7-hydroxy-3-phenylchroman-4-yl)phenyl)-7-azaspiro[3.5]nonan-2-yl)methyl)-8-oxo-1,2,3,4,4a,5,8,10-octahydro-9H-pyrazino[1′,2′:4,5][1,4]oxazino[2,3-f]isoindol-9-yl)piperidine-2,6-dione] | < 5.30 | –
21 | O=C1CCC(Nc2ccc(N3CCN(CC4CCN(c5ccc([C@@H]6c7ccc(O)cc7OC[C@@H]6c6ccccc6)cc5F)CC4)CC3)c(F)c2)C(=O)N1 (stereo partly drawn) [Compound A29, 3-((3-fluoro-4-(4-((1-(2-fluoro-4-((3S,4R)-7-hydroxy-3-phenylchroman-4-yl)phenyl)piperidin-4-yl)methyl)piperazin-1-yl)phenyl)amino)piperidine-2,6-dione] | 5.30 to 6.30 | –
22 | O=C1CCC(Nc2ccc(N3CCN(CC4CCN(c5ccc([C@@H]6c7ccc(O)cc7OC[C@@H]6c6ccccc6)cc5)CC4)CC3)c(F)c2)C(=O)N1 (stereo partly drawn) [Compound A30, 3-((3-fluoro-4-(4-((1-(4-((3S,4R)-7-hydroxy-3-phenylchroman-4-yl)phenyl)piperidin-4-yl)methyl)piperazin-1-yl)phenyl)amino)piperidine-2,6-dione] | 5.30 to 6.30 | –
23 | O=C1CCC(N2C(=O)c3cc4c(cc3C2=O)CN(C(=O)CN2CC3(CCN(c5ccc([C@@H]6c7ccc(O)cc7OC[C@@H]6c6ccccc6)cc5)CC3)C2)C4)C(=O)N1 (stereo partly drawn) [Compound A32, 2-(2,6-dioxopiperidin-3-yl)-6-(2-(7-(4-((3S,4R)-7-hydroxy-3-phenylchroman-4-yl)phenyl)-2,7-diazaspiro[3.5]nonan-2-yl)acetyl)-6,7-dihydropyrrolo[3,4-f]isoindole-1,3(2H,5H)-dione] | 5.30 to 6.30 | –
